Assay results from PMC4126177, “Molecular docking simulation studies on potent butyrylcholinesterase inhibitors obtained from microbial transformation of dihydrotestosterone” (Chemistry Central Journal, 2013).
Like-named read-outs stand apart in the source and are kept apart here.

Target: T1, Equine serum BChE (butyrylcholinesterase) (Equus caballus, UniProt P81908)
T1 construct: commercial native enzyme from horse serum (Sigma); docking used human BChE 1P0P, not the assayed protein
Experiment: DTNB (Ellman-type) spectrophotometric assay, […] nm
Assay type: biochemical

T1 sequence (P81908 whole entry): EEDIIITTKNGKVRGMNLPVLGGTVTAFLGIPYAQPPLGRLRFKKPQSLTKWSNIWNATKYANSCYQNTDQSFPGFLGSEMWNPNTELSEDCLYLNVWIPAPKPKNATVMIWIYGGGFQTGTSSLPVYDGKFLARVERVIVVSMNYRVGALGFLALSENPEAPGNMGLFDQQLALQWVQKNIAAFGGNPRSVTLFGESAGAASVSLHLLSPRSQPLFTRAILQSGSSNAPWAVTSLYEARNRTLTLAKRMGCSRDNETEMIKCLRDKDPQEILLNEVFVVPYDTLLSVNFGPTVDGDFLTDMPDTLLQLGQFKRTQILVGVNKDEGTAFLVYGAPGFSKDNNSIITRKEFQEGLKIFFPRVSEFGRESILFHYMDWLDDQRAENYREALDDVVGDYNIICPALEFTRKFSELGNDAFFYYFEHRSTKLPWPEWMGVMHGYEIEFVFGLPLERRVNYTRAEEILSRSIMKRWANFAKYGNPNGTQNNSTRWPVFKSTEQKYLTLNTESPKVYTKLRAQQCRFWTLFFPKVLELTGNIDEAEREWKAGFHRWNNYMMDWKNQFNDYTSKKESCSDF

| SMILES | IC50 [µM] | IC50 (read-out: Mean ± SEM^ a [ μ M]) [µM] |
| --- | --- | --- |
| C[C@]12C=CC(=O)C=C1CC[C@@H]1[C@@H]2CC[C@]2(C)C(=O)CC[C@@H]12 [compound 5, Androst-1,4-dien-3,17-dione] | 11.8 ± 0.5 | – |
| C[C@]12CCC(=O)C=C1CC[C@@H]1[C@@H]2[C@H](O)C[C@]2(C)C(=O)CC[C@@H]12 [compound 6, 11α-Hydroxyandrost-4-en-3,17-dione] | – | 20.5 ± 0.2 |
